The text below walks through data of patent US10131669B2, “Pyrazolopyrimidine compounds” (Pfizer Inc., priority 2014, dated 2018).

Holding throughout (format): biochemical
The target in one assay is T1, Human PDE4A3 (Homo sapiens, UniProt P27815).
T1 construct: His6 (N); FLAG (C); made in house; host or cells: insect cells (baculovirus, pFastBac)
The experiment in a line: PDE4A3 Scintillation Proximity Assay (SPA), inhibition of enzyme activity. Particulars: geometric mean of 2-7 determinations unless otherwise indicated (b: ≥8 determinations; c: single determination), 1 μM cAMP, 30 min at 25° C., read-out: Human PDE4A FL. An outline of the steps:
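Human PDE4A3 (aa 2–825, His6/FLAG-tagged, insect-cell expressed) at 80 pM hydrolyses 1 μM cAMP including 20 nM 3H-cAMP, ~20% conversion. Buffer is 50 mM Tris pH 7.5, 1.3 mM MgCl2, 0.01% Brij. Incubated 30 min at 25 °C with inhibitor range, stopped with yttrium silicate SPA beads, read after 8 h settling.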
(In general: SPA uses beads or plates that emit light when radiolabelled molecules are held near them.)

Another assay addresses T2, Human PDE4C1 (Homo sapiens, UniProt Q08493).
T2 construct: His6 (N); FLAG (C); made in house; host or cells: insect cells (baculovirus, pFastBac)
As to the kind of experiment: PDE4C1 Scintillation Proximity Assay (SPA), inhibition of enzyme activity. Particulars: geometric mean of 2-7 determinations unless otherwise indicated (b: ≥8 determinations; c: single determination), 1 μM cAMP, 30 min at 25° C., read-out: Human PDE4C FL. An outline of the steps: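 Human recombinant FLAG/His-purified PDE4C1 from insect cells at 40 pM, with 1 μM cAMP (3H-cAMP tracer) in Tris pH 7.5, 1.3 mM MgCl2, 0.01% Brij, ~20% substrate turnover. Incubation 30 min at 25° C with a range of inhibitor concentrations. Stopped with yttrium silicate SPA beads and read by scintillation after 8 h settling.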

The target of a further assay is T3, human PDE4D3 (Homo sapiens, UniProt Q08499).
T3 construct: His6 (C); made in house; host or cells: insect cells (baculovirus, pFastBac)
The experiment in a line: PDE4D3 Scintillation Proximity Assay (SPA), inhibition of enzyme activity. Particulars: geometric mean of 2-7 determinations unless otherwise indicated (b: ≥8 determinations; c: single determination); 1 μM cAMP, 30 min at 25° C.; read-out: Human PDE4D FL; IC50. Put shortly:
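Recombinant enzyme from insect cells, Ni-NTA and Q Sepharose purified, used at 10 pM in 50 mM Tris pH 7.5, 1.3 mM MgCl2, 0.01% Brij. Substrate 1 μM cAMP with 3H-cAMP tracer, ~20% conversion, inhibitor range, 30 min at 25°C. Stopped with yttrium silicate SPA beads and scintillation read.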

The next assay deals with T4, Human PDE4B1 (Homo sapiens, UniProt Q07343, S133E/S654A/S659A/S661A).
T4 construct: His6 (N); thrombin cleavage site (N); made in house; host or cells: insect cells (baculovirus, pFastBac)
As to the kind of experiment: PDE4B1 Scintillation Proximity Assay (SPA), inhibition of enzyme activity. Particulars: geometric mean of 2-7 determinations unless otherwise indicated (b: ≥8 determinations; c: single determination); 1 μM cAMP, 30 min at 25° C.; read-out: Human PDE4B FL; IC50. An outline of the steps: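 His-tagged human PDE4B1 expressed in insect cells and purified by Ni-NTA and Source 15Q was assayed in 50 mM Tris pH 7.5, 1.3 mM MgCl2, 0.01% Brij. The substrate was 1 μM cAMP with ³H-cAMP tracer, at about 20% conversion, for 30 min at 25 °C. Yttrium silicate SPA beads stopped the reaction; counts were read after 8 h settling.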

Structures are written as SMILES.

T4 sequence (Q07343 122-736 S133E/S654A/S659A/S661A): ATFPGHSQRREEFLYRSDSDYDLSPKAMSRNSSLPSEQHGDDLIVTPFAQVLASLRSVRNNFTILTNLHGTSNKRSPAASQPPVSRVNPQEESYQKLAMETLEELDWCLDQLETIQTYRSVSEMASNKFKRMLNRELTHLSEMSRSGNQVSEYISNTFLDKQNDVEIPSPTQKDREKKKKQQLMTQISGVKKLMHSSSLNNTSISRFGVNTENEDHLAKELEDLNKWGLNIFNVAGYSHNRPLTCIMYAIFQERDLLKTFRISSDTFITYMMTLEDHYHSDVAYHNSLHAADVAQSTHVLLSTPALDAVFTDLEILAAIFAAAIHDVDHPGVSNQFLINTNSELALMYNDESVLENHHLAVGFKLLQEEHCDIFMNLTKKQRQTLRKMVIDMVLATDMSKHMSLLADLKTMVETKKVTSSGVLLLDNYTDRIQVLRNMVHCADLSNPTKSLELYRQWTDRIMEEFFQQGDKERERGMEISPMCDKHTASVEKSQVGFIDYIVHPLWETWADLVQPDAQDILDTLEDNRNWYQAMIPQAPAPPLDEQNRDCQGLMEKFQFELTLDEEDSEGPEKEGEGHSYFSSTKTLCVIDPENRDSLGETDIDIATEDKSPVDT
T2 sequence (Q08493 2-712): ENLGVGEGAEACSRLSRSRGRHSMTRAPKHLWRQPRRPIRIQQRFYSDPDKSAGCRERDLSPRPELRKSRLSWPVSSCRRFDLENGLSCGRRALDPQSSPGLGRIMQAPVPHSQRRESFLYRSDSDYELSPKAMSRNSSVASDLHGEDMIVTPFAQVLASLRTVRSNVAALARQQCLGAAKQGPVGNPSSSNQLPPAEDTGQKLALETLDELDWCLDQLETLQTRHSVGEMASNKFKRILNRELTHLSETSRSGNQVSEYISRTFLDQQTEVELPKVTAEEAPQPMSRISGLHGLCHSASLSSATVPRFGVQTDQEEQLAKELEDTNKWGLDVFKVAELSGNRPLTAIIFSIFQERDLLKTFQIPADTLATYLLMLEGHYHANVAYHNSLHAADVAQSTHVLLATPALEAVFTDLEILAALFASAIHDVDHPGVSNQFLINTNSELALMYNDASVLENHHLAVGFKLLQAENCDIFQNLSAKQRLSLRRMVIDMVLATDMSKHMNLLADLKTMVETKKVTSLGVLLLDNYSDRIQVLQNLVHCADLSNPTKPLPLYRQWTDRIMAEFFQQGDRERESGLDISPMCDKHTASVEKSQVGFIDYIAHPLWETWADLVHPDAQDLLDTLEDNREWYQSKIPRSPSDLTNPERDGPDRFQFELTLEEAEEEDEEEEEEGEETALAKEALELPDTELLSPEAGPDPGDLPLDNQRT
T3 sequence (Q08499 186-808): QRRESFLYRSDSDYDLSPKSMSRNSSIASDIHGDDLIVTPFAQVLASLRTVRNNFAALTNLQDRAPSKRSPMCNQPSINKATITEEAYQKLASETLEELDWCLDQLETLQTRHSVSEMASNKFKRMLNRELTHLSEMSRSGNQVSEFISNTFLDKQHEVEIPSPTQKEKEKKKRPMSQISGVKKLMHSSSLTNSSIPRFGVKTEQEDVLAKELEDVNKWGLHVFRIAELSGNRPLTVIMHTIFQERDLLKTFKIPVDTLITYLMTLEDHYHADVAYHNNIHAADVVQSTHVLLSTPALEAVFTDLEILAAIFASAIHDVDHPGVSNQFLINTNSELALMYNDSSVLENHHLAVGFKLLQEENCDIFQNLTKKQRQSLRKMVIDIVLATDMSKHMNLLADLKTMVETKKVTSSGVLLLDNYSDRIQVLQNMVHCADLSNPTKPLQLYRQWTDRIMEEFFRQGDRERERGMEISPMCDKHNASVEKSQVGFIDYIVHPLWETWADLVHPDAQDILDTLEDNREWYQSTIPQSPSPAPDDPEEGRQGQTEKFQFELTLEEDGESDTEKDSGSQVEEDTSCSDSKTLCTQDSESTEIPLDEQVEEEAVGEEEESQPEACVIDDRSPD
T1 sequence (P27815 2-825 isoform P27815-6): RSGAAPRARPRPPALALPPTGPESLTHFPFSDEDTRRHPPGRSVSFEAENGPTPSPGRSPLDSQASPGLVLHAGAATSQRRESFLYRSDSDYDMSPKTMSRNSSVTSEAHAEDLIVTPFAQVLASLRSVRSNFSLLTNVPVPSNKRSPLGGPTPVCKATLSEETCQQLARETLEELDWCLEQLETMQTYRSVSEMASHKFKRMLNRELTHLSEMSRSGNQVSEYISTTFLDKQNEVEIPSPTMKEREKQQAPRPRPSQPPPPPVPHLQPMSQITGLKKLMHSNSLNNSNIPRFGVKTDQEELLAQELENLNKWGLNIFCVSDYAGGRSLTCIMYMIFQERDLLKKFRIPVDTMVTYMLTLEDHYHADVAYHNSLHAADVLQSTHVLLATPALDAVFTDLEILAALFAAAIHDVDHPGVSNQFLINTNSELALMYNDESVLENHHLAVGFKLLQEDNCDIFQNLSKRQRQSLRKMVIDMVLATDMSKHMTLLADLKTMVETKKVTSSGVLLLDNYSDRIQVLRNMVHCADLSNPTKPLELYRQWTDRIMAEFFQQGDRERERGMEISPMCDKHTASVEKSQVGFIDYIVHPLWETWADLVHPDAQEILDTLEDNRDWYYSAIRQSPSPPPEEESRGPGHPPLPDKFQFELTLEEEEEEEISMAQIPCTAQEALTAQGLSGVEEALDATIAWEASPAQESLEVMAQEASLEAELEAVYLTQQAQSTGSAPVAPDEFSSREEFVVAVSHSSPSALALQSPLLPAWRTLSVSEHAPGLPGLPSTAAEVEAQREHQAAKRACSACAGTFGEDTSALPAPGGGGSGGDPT

Take `Cc1cc(Cl)c(F)cc1-c1c(C(=O)NC2CCC2)nn2cccnc12` [Example 24, 3-(4-chloro-5-fluoro-2-methylphenyl)-N-cyclobutylpyrazolo[1,5-a]pyrimidine-2-carboxamide]: the IC50 on Human PDE4A3 was found to be 8.53 nM; at Human PDE4C1, 44 nM; at human PDE4D3 it was 606 nM; on Human PDE4B1, 35.4 nM.

Turning to `N#Cc1ccc(-c2c(C(=O)N3CCC3)nn3cc(F)cnc23)cc1F` [Example 68, 4-[2-(azetidin-1-ylcarbonyl)-6-fluoropyrazolo[1,5-a]pyrimidin-3-yl]-2-fluorobenzonitrile], the IC50 at Human PDE4A3 turned out to be 3.31 nM; on Human PDE4C1, 32.9 nM; at human PDE4D3 it was 261 nM; on Human PDE4B1 it was 16.8 nM.

For `Cc1cc(Cl)c(F)cc1-c1c(C(=O)NC(C)C)nn2cccnc12` [Example 54, 3-(4-chloro-5-fluoro-2-methylphenyl)-N-(propan-2-yl)pyrazolo[1,5-a]pyrimidine-2-carboxamide], the IC50 on Human PDE4A3 turned out to be 12.9 nM; on Human PDE4C1, 59 nM; on human PDE4D3, 469 nM; at Human PDE4B1, 24.5 nM.

As to `O=C(NC12CC(C1)C2)c1nn2cccnc2c1-c1ccc(Cl)cc1` [Example 27, N-(bicyclo[1.1.1]pent-1-yl)-3-(4-chlorophenyl)pyrazolo[1,5-a]pyrimidine-2-carboxamide], the IC50 at Human PDE4A3 is 55.8 nM; on Human PDE4C1, 217 nM; at human PDE4D3, 6200 nM; on Human PDE4B1, 124 nM.

For the compound `O=C(NC1CC1)c1nn2cc(F)cnc2c1-c1ccnc(OC(F)F)c1` [Example 56, N-cyclopropyl-3-[2-(difluoromethoxy)pyridin-4-yl]-6-fluoropyrazolo[1,5-a]pyrimidine-2-carboxamide], the IC50 amounted to 3.92 nM at Human PDE4A3, 19.4 nM on Human PDE4C1, 78.4 nM on human PDE4D3 and 22.3 nM at Human PDE4B1.

As for `O=C(NC1CC1)c1nn2cccnc2c1-c1ccc(Cl)c(F)c1` [Example 5, 3-(4-Chloro-3-fluorophenyl)-N-cyclopropylpyrazolo[1,5-a]pyrimidine-2-carboxamide], the IC50 at Human PDE4A3 came to 3.29 nM; at Human PDE4C1, 18 nM; at human PDE4D3, 662 nM; on Human PDE4B1, 5.87 nM.

Consider `Cc1ccc(-c2c(C(=O)NC3CC3)nn3cc(F)cnc23)cc1F` [Example 63, N-cyclopropyl-6-fluoro-3-(3-fluoro-4-methylphenyl)pyrazolo[1,5-a]pyrimidine-2-carboxamide], for which the IC50 at Human PDE4A3 amounted to 4.02 nM; on Human PDE4C1, 9.5 nM; on human PDE4D3, 459 nM; on Human PDE4B1, 13.2 nM.

Regarding `Cc1cc(Cl)ccc1-c1c(C(=O)N2CCC2)nn2cccnc12` [Example 21, azetidin-1-yl[3-(4-chloro-2-methylphenyl)pyrazolo[1,5-a]pyrimidin-2-yl]methanone], the IC50 at Human PDE4A3 is 16.6 nM; on Human PDE4C1 it was 56.5 nM; on human PDE4D3, 4830 nM; on Human PDE4B1, 44.6 nM.

With `Cc1cc(Cl)c(F)cc1-c1c(C(=O)NC2CC2)nn2cccnc12` [Example 25, 3-(4-chloro-5-fluoro-2-methylphenyl)-N-cyclopropylpyrazolo[1,5-a]pyrimidine-2-carboxamide], the IC50 was 5.35 nM at Human PDE4A3, 17.4 nM on Human PDE4C1, 283 nM on human PDE4D3 and 9.61 nM at Human PDE4B1.

In the case of `Cc1cc(C#N)c(F)cc1-c1c(C(=O)NC2CC2)nn2cc(F)cnc12` [Example 67, 3-(4-cyano-5-fluoro-2-methylphenyl)-N-cyclopropyl-6-fluoropyrazolo[1,5-a]pyrimidine-2-carboxamide], the IC50 at Human PDE4A3 came out at 3.46 nM; at Human PDE4C1, 26.8 nM; on human PDE4D3 it was 111 nM; on Human PDE4B1 it was 16.4 nM.

Consider `Cc1cc(C#N)c(F)cc1-c1c(C(=O)N2CCC2)nn2cccnc12` [Example 69, 4-[2-(azetidin-1-ylcarbonyl)pyrazolo[1,5-a]pyrimidin-3-yl]-2-fluoro-5-methylbenzonitrile], for which the IC50 at Human PDE4A3 came to 3.37 nM; on Human PDE4C1, 36.1 nM; on human PDE4D3, 92.9 nM; on Human PDE4B1, 17.3 nM.

Regarding `Cc1ccc(-c2c(C(=O)NC3CC3)nn3cccnc23)cc1F` [Example 70, N-cyclopropyl-3-(3-fluoro-4-methylphenyl)pyrazolo[1,5-a]pyrimidine-2-carboxamide], the IC50 at Human PDE4A3 amounted to 8.09 nM; at Human PDE4C1 it was 17 nM; on human PDE4D3 it was 680 nM; on Human PDE4B1 it was 23.6 nM.
